From publication PMC4979471 (Cell Death Discovery, 2015)
Like-named read-outs stand apart in the source and are kept apart here.

Columns and labels:
Experiment in all cases: Kinase selectivity, P33-radiolabeled assay
Format in all cases: biochemical
Details in all cases: 10 μM ATP
MNK1 = target: T1, MNK1 (Homo sapiens, UniProt Q9BUB5)
T1 construct: purchased Reaction Biology Corp
In short: (§1)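 Reactions contained 10 μM ATP and 10 μM test compound, each run in duplicate. Kinase activity is expressed as a percentage of DMSO-treated controls.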

ACK1 = target: T2, ACK1 (Homo sapiens, UniProt Q07912)
T2 construct: purchased Reaction Biology Corp
In short: as §1

MEK1 = target: T3, MEK1 (Homo sapiens, UniProt Q02750)
T3 construct: purchased Reaction Biology Corp
In short: as §1

STK39/STLK3 = target: T4, STK39/STLK3 (Homo sapiens, UniProt Q9UEW8)
T4 construct: purchased Reaction Biology Corp
In short: as §1

TYK1/LTK = target: T5, TYK1/LTK (Homo sapiens, UniProt P29376)
T5 construct: purchased Reaction Biology Corp
In short: as §1

IRAK4 = target: T6, IRAK4 (Homo sapiens, UniProt Q9NWZ3)
T6 construct: purchased Reaction Biology Corp
T6 sequence (Q9NWZ3 1-460): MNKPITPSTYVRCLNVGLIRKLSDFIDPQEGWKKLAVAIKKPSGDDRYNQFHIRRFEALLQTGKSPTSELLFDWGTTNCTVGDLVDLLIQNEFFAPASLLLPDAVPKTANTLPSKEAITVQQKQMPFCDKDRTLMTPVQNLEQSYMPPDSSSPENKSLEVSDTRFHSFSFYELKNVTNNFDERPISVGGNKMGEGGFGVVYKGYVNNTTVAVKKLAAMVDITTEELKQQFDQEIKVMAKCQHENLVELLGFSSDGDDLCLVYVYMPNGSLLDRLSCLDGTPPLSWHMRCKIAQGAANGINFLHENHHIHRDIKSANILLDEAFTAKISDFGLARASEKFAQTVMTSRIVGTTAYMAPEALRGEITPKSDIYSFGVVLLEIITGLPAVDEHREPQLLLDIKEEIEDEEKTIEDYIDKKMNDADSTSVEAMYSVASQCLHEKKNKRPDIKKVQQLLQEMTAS
In short: as §1

ROCK2 = target: T7, ROCK2 (Homo sapiens, UniProt O75116)
T7 construct: purchased Reaction Biology Corp
In short: as §1

TYRO3/SKY = target: T8, TYRO3/SKY (Homo sapiens, UniProt Q06418)
T8 construct: purchased Reaction Biology Corp
T8 sequence (Q06418 41-890): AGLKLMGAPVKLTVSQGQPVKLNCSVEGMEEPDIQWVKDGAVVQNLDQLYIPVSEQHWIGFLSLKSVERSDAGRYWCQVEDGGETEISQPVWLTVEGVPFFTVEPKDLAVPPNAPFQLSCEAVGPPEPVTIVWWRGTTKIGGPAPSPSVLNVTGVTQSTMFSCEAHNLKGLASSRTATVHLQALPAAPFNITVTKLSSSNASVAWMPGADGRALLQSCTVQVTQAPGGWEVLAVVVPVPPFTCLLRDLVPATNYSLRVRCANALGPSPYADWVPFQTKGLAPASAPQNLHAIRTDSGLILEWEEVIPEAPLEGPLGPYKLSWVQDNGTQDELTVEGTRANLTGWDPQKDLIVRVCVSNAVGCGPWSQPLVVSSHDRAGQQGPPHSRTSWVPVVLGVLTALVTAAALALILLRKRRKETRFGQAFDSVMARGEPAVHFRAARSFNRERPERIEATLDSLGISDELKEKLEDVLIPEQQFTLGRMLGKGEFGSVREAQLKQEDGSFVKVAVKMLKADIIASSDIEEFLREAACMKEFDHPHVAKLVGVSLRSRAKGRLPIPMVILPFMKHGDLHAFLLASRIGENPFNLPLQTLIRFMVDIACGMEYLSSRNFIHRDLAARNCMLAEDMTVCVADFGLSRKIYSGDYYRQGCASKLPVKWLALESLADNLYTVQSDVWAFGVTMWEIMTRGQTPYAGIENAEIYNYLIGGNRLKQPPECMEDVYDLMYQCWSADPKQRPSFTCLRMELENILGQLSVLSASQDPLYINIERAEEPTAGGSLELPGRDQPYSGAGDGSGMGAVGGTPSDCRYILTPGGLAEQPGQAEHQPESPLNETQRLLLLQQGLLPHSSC
In short: as §1

DYRK3 = target: T9, DYRK3 (Homo sapiens, UniProt O43781)
T9 construct: purchased Reaction Biology Corp
T9 sequence (O43781 1-588): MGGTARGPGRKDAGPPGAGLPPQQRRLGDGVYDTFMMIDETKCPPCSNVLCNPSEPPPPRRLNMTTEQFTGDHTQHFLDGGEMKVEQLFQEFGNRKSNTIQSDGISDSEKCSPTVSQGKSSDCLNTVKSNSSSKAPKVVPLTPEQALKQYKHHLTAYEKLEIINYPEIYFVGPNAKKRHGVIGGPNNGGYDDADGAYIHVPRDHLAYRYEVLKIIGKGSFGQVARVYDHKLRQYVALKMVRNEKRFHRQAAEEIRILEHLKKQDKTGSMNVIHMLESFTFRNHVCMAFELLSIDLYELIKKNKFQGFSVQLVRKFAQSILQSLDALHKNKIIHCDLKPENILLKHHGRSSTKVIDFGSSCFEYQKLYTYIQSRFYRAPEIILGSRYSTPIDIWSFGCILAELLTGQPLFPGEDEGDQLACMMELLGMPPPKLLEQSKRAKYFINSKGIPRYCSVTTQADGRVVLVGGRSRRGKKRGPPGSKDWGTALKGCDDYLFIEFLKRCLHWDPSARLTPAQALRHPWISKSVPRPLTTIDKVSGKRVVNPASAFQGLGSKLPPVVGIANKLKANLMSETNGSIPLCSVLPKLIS
In short: as §1

P38b/MAPK11 = target: T10, P38b/MAPK11 (Homo sapiens, UniProt Q15759)
T10 construct: purchased Reaction Biology Corp
In short: as §1

CHK2 = target: T11, CHK2 (Homo sapiens, UniProt O96017)
T11 construct: purchased Reaction Biology Corp
In short: as §1

[1] = read-out: % Enzyme Activity (relative to DMSO controls) AVG
[2] = read-out: % Enzyme Activity (relative to DMSO controls) Data 1
[3] = read-out: % Enzyme Activity (relative to DMSO controls) Data 2

T2 sequence (Q07912 whole entry): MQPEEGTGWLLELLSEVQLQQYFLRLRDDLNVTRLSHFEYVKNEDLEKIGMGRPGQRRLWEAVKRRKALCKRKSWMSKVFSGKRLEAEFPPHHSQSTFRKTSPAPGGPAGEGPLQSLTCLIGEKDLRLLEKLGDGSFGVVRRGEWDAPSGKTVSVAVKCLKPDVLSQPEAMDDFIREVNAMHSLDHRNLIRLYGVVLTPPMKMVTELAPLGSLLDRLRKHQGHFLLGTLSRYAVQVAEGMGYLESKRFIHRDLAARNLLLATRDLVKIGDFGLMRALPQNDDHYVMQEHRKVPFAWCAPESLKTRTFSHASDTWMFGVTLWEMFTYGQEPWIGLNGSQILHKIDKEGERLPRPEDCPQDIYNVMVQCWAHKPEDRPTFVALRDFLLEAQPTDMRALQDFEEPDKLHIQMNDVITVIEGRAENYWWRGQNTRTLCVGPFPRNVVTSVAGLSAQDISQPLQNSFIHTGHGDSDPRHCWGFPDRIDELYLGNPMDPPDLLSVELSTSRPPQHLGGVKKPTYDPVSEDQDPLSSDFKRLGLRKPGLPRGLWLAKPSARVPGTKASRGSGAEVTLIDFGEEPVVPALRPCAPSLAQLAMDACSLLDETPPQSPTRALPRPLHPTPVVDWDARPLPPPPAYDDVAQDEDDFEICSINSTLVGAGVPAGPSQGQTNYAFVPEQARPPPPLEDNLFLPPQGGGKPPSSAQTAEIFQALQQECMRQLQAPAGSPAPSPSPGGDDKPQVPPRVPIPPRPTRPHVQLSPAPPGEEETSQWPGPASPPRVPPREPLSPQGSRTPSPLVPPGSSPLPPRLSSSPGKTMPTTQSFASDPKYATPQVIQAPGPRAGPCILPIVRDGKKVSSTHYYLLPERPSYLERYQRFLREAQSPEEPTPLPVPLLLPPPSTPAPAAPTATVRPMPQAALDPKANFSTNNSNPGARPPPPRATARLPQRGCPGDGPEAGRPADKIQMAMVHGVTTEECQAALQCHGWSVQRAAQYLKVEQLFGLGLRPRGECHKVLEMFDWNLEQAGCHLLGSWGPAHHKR
T1 sequence (Q9BUB5 whole entry): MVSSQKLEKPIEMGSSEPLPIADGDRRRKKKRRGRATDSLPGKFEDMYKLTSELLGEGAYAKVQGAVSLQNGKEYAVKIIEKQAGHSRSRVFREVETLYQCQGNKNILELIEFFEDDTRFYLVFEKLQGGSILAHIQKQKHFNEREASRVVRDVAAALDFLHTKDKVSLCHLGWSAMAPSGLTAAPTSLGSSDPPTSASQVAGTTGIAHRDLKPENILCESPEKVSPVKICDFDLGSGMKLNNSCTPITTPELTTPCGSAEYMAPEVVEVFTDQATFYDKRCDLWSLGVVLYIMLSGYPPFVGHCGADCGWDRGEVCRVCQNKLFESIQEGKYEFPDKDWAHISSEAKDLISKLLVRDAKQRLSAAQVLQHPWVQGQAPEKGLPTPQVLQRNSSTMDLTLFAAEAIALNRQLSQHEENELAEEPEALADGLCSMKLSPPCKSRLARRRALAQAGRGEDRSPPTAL
T10 sequence (Q15759 whole entry): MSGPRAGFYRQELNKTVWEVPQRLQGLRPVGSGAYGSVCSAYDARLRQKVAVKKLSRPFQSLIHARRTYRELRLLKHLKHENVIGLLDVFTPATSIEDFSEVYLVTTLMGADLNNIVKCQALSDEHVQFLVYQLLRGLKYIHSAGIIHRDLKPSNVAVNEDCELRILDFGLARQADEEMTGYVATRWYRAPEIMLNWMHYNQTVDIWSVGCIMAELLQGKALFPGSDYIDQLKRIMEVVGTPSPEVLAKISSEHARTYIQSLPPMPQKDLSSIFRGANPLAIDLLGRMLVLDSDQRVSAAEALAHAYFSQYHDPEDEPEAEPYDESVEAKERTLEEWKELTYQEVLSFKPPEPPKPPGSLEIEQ
T3 sequence (Q02750 whole entry): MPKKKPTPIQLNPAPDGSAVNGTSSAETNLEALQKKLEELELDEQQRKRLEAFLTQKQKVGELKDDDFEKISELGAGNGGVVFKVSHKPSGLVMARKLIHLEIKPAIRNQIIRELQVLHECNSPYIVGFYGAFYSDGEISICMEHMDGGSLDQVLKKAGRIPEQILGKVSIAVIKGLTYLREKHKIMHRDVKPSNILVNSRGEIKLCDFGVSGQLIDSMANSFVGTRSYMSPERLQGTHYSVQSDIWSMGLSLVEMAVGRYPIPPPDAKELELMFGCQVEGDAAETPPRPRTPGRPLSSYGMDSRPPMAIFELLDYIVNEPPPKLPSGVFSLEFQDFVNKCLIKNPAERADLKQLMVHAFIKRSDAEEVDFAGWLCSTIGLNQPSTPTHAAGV
T11 sequence (O96017 whole entry): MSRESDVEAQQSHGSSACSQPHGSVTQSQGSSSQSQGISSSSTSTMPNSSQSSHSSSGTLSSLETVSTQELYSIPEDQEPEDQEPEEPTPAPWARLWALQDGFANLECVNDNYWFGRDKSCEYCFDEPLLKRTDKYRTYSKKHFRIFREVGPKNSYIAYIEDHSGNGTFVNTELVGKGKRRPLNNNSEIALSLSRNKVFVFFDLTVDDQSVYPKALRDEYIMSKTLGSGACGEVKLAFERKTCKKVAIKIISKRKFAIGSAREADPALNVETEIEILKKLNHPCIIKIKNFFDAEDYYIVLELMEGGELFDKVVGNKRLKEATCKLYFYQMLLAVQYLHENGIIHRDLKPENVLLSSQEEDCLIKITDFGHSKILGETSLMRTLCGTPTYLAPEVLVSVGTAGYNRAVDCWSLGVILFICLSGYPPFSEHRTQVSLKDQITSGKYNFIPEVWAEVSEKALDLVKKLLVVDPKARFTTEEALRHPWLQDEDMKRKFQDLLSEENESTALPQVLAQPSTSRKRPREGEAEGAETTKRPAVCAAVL
T7 sequence (O75116 whole entry): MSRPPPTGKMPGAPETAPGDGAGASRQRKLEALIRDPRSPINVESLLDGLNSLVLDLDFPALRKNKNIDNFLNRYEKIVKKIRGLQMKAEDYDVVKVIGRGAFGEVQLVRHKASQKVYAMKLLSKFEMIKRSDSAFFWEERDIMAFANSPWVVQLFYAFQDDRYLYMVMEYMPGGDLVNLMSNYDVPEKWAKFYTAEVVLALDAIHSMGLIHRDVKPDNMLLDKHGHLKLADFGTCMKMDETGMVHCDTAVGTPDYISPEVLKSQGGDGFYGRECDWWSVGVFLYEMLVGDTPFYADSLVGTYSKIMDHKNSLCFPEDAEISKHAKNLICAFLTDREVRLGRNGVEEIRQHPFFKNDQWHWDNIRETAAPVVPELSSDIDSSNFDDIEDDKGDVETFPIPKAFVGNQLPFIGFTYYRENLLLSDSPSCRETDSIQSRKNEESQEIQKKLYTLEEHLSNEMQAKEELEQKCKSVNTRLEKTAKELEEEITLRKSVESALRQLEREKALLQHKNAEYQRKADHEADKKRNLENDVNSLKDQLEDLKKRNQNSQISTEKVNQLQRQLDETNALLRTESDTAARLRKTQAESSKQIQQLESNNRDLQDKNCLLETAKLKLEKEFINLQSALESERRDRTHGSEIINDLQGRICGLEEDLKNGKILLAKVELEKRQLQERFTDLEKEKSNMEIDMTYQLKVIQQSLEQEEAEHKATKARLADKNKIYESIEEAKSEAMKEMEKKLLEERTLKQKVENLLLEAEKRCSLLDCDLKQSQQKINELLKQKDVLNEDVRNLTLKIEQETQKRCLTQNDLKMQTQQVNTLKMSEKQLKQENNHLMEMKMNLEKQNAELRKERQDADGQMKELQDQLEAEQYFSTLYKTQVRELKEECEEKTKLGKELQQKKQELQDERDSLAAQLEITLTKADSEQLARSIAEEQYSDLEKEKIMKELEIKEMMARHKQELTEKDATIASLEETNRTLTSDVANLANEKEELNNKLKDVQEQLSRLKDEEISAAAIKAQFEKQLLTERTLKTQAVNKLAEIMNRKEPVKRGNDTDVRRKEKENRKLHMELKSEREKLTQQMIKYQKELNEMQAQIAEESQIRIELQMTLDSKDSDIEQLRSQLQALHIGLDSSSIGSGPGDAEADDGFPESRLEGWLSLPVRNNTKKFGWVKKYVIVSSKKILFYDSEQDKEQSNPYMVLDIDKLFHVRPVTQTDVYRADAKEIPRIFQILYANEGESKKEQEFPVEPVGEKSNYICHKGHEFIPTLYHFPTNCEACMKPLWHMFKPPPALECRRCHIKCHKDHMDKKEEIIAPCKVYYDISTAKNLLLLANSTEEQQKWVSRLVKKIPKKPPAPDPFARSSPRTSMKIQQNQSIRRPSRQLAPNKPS
T5 sequence (P29376 17-864): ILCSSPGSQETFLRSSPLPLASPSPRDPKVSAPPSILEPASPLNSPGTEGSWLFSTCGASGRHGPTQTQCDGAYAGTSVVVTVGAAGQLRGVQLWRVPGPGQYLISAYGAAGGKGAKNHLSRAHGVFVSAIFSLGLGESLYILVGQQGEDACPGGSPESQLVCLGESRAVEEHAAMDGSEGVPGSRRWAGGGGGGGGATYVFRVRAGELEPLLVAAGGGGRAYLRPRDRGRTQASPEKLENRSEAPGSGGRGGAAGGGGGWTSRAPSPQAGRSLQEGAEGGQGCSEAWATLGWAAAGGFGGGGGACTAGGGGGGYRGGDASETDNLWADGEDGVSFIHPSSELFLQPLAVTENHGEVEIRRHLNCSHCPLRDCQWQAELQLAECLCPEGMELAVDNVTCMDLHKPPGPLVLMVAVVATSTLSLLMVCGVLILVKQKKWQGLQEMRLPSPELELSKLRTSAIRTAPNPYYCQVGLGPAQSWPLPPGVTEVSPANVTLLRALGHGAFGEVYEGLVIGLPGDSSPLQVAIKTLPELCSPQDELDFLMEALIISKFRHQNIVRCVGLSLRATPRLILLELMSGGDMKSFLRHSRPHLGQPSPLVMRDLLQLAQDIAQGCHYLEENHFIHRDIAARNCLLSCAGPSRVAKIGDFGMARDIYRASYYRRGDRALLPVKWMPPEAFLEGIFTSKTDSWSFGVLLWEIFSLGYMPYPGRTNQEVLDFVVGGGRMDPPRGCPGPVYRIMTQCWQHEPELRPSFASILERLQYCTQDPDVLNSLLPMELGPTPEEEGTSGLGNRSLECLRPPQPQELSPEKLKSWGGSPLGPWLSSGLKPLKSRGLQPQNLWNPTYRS

CC(C)(C)C(=O)N1N=CC[C@H]1c1ccccc1 [GSK′963]
remaining activity at 10 µM (MNK1; [1]): 117%
remaining activity at 10 µM (MNK1; [2]): 111%
remaining activity at 10 µM (MNK1; [3]): 122%
remaining activity at 10 µM (ACK1; [1]): 82.3%
remaining activity at 10 µM (ACK1; [2]): 84.2%
remaining activity at 10 µM (ACK1; [3]): 80.3%
remaining activity at 10 µM (MEK1; [1]): 103%
remaining activity at 10 µM (MEK1; [2]): 103%
remaining activity at 10 µM (MEK1; [3]): 103%
remaining activity at 10 µM (STK39/STLK3; [1]): 95.1%
remaining activity at 10 µM (STK39/STLK3; [2]): 100%
remaining activity at 10 µM (STK39/STLK3; [3]): 89.9%
remaining activity at 10 µM (TYK1/LTK; [1]): 104%
remaining activity at 10 µM (TYK1/LTK; [2]): 104%
remaining activity at 10 µM (TYK1/LTK; [3]): 105%
remaining activity at 10 µM (IRAK4; [1]): 115%
remaining activity at 10 µM (IRAK4; [2]): 116%
remaining activity at 10 µM (IRAK4; [3]): 114%
remaining activity at 10 µM (ROCK2; [1]): 98%
remaining activity at 10 µM (ROCK2; [2]): 99%
remaining activity at 10 µM (ROCK2; [3]): 97.1%
remaining activity at 10 µM (TYRO3/SKY; [1]): 97.2%
remaining activity at 10 µM (TYRO3/SKY; [2]): 97.1%
remaining activity at 10 µM (TYRO3/SKY; [3]): 97.3%
remaining activity at 10 µM (DYRK3; [1]): 115%
remaining activity at 10 µM (DYRK3; [2]): 113%
remaining activity at 10 µM (DYRK3; [3]): 116%
remaining activity at 10 µM (P38b/MAPK11; [1]): 102%
remaining activity at 10 µM (P38b/MAPK11; [2]): 104%
remaining activity at 10 µM (P38b/MAPK11; [3]): 99.3%
remaining activity at 10 µM (CHK2; [1]): 105%
remaining activity at 10 µM (CHK2; [2]): 106%
remaining activity at 10 µM (CHK2; [3]): 104%
